Experimental data: PMC3495945, “Org 214007-0: A Novel Non-Steroidal Selective Glucocorticoid Receptor Modulator with Full Anti-Inflammatory Properties and Improved Therapeutic Index” (PLoS ONE, 2012)
Like-named read-outs stand apart in the source and are kept apart here.

Key:
[1] = tested on: primary human whole blood cells; test: Human whole blood PMA/anti-CD28-induced cytokine release; format: cell-based; details: for IC50: read-out: IC50, PMA/anti-CD28-induced IL-5 release
Description: Hereafter, supernatant was carefully collected and tested at the most optimal dilution (predetermined by a titration study on control samples) in a human TNFα-specific ELISA (for the LPS stimulated samples) or in a human IL-5-specific or human G-CSF-specific ELISA (for the PMA/anti-CD28 stimulated samples) (Duoset, R&D systems USA).

[2] = tested on: HepG2 cells; test: Gene expression profiling (microarray) in HepG2 cells; format: cell-based, human; details: HepG2, 1 μM compound, 6 hours; prednisolone set at 100%
Experimental: HepG2-8/97-WS.5 cells, deprived from serum for 18 hours, were stimulated with glucocorticoid and 0.5 mM cAMP for 6 hours. RNA was isolated and used for double stranded cDNA synthesis using the One-Cycle Target Labeling Kit (Affymetrix Santa Clara, CA). This cDNA was used as a template for the preparation of biotin-labeled cRNA using the GeneChip IVT Labeling Kit (Affymetrix Santa Clara, CA). Biotin-labeled cRNA was fragmented and hybridized at 45°C for 16–17 hours to the Human Genome U133A 2.0 Array or the Human Genome U133 Plus 2.0 Array (Affymetrix, Santa Clara, CA). (for more detailed information see Supportive Information) (SI text). Arrays were stained with phycoerythrin-streptavidin conjugate (Molecular Probes, Eugene, OR), and the signals were amplified by staining the array with biotin-labeled anti-streptavidin antibody (Vector Laboratories, Burlingame, CA) followed by phycoerythrin-streptavidin. […] Data was saved as raw image file and quantified using GCOS (Affymetrix). […]
HepG2-8/97-WS.5 cells were seeded at 2.10^5 cells/mL in a 24-well plate in DMEM/F12 medium (Gibco), supplemented with 80 U/mL penicillin, 80 μg/mL streptomycin and 5% Fetal Bovine Serum (Invitrogen). […] RNA quantity and quality were determined using the Agilent […] bioanalyzer. […] Data was saved as raw image file and quantified using GCOS (Affymetrix).

[3] = target: T1, GR (Homo sapiens, UniProt P04150); test: U2OS GR.G9 IFNγ/TNFα-induced MCP-1 release (repression); format: cell-based; set-up: expressed in transfected cells; host or cells: U2OS (U2OS GR.G9); details: for Max. eff., repression of MCP-1 release: IFNγ/TNFα, relative to prednisolone (100%)
T1 sequence (P04150 1-777): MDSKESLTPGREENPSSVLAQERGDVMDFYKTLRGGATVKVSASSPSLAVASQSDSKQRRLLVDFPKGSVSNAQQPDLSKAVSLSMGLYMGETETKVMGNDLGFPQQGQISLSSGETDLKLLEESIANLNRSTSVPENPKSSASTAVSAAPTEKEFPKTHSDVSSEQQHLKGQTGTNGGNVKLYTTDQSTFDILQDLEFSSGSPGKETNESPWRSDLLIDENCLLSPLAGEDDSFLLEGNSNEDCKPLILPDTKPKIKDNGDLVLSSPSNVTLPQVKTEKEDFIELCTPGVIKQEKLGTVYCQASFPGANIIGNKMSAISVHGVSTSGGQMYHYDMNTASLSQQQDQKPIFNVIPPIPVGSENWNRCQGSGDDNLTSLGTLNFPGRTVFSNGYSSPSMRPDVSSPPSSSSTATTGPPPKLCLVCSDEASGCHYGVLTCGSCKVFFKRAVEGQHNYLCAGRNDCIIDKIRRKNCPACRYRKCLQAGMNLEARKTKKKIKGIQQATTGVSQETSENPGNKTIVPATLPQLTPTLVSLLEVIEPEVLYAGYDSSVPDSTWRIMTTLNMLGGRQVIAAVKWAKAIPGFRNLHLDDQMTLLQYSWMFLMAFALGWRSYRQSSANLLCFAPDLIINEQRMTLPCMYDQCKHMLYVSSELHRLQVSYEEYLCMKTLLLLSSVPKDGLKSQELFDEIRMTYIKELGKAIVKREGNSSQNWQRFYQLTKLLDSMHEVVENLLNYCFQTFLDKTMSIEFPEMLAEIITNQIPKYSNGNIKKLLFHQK
Experimental: To determine the repressive activity of GR ligands, cell line U2OS GR.G9, the human osteoblastic cell line U2OS, stably transfected with human GR, was used. Cells (10^4 cells/well) were incubated in 384-wells plates, in the presence of 50 ng/ml TNFα (R&D systems)/100 ng/ml IFNγ (Peprotech) and compound, for 18 hours. Hereafter, a mixture of two different antibodies to hMCP-1, one Eu-labeled and one APC-labeled, were added. One hour later the time-resolved fluorometric resonance energy transfer (TR-FRET) signal was measured. (for more detailed information see Supportive Information) (SI text).
U2OS GR.G9 cells (10^4 cells/well) in Dulbecco's MEM / HAM F12 medium supplemented with 5% charcoal treated bovine calf serum (Hyclone) (v/v) and Penicillin (10 U/ml) -Streptomycin (10 μg/ml) were incubated in 384-wells plates, in the presence of 50 ng/ml TNFα (R&D systems) / 100 ng/ml IFNγ (Peprotech) and compound, for 18 hours in a humidified atmosphere at 37°C under 6.5% CO2. Hereafter, a mixture of 2.2 nM anti-hMCP-1 labeled with fluorescent donor Europium (Eu) and 16.6 nM anti-hMCP-1 labeled with fluorescent acceptor Allophycocyanin (APC) was added to each well and left at roomtemperature for 1 hour. Finally, the time-resolved fluorometric resonance energy transfer (TR-FRET) signal was measured with the Victor^2TM V, 1420 Multilabel Counter (Wallac). Using 4-parameter curve fitting, IC50 values for the compounds were determined.

[4] = human whole blood, P/28, prednisolone = 100%

| Structure (SMILES) | EC50 ([1]; Whole blood cell, human whole blood, 24 hours, read-out: EC50, enhancement of PMA/anti-CD28-induced G-CSF release) | IC50 ([1]; Whole blood cell, human whole blood, 24 hours) | Max. eff., G-CSF induction [1, 4] | Max. eff., IL-5 repression [1, 4] | Max eff., induction of gene expression, micro-array [2] | IC50 ([3]; IFNγ (100 ng/ml)/TNFα (50 ng/ml), 18 hours) | Max. eff., repression of MCP-1 release [3] | Max. eff., repression of MCP-1 release ([3]; listed as Org) | IC50 ([1]; Homo sapiens, Whole blood cell, 24 h) |
| --- | --- | --- | --- | --- | --- | --- | --- | --- | --- |
| Cc1nnsc1C(=O)N[C@H]1CCN2c3ccc(C#N)cc3[C@@H](C)c3ccccc3[C@@H]2C1 [Org 214007-0] | 186 nM | 14.4 nM | 39 (±7.8) % | 64 (±11) % | 67% | 0.36 nM | 81% | 81 (±16) % | – |
| C[C@]12C=CC(=O)C=C1CC[C@@H]1[C@@H]2[C@@H](O)C[C@@]2(C)[C@H]1CC[C@]2(O)C(=O)CO [prednisolone, reference compound] | – | – | – | 100% | 100% | – | 100 (±9.6) % | – | 6.76 nM |
